# Measurements: patent US8987193B2, “Nisin derivatives and the use thereof” (University College Cork—National University of Ireland, Cork, priority 2008, dated 2015)
# “Also recorded” adds a separate entry of the source. Ends that are not written are not given here.
# What was measured:
# indicator strains = experiment: Deferred antagonism assays, various indicator strains (summary); assay type: cell-based; details: for Target strain against which the hinge mutant was selected for enhanced bioactivity: XX and XXX banks, L. lactis HP*: enhanced or equal; for Target strain against which the hinge mutant was selected for enhanced bioactivity / Strain(s) against which the derivative (producing strain) displays enhanced bioactivity: relative to nisin A-producing control; for Strain(s) against which the derivative (producing strain) displays enhanced bioactivity: value = strains listed; for number of targets with enhanced activity: of the 8 additional targets tested
# Description: (§1) Deferred antagonism assays were performed by replicating strains on GM17 or GM17 x-gal agar plates and allowing them to grow overnight before overlaying with either GM17/BHI/TS/MH agar (0.75% w/v agar) seeded with the appropriate indicator strain. Zone size was calculated as the diameter of the zone of clearing minus the diameter of bacterial growth (5 mm) For higher throughput screening of N20PXX, XM21VX, XXK22T and XXX banks deferred antagonism assays were performed by replicating strains using a 96 pin replicator (Boekel) or spotting 5 μl of a fresh overnight culture on GM17 agar plates and allowing them to grow overnight. […] Additional sets of indicators were employed to further assess/reassess the bioactivity of a number of strains. […] For well-diffusion assays molten agar was cooled to 48° C. and seeded with the appropriate indicator strain. The inoculated medium was rapidly transferred into sterile Petri plates in 50 ml volumes, allowed to solidify and dried. Wells (4.6 mm in diameter) were then made in the seeded plates. Purified nisin and mutant nisins were resuspended in 0.005% acetic acid, serially diluted, 50 μl volumes were dispensed into the aforementioned wells and the plates incubated at 37° C. overnight. Bioactivity was expressed as arbitrary units/ml (AU/ml) and calculated as the reciprocal of the highest dilution that gave a definite zone multiplied by the conversion factor (i.e. 20 when 50 μl was used) (Ryan et al., 1996).
# L. monocytogenes CBC2 = experiment: Deferred antagonism assay; assay type: cell-based, Listeria monocytogenes; parameters: key: + = Enhanced bioactivity relative to control; − = Bioactivity equal to or less than control; NA = no activity evident; details: L. mono CBC2; XX and XXX hinge mutant producers
# Description: as §1
# (§2) As a consequence of the enhanced activities of K22T and K22S, a more in-depth investigation of this region was carried out. Saturation mutagenesis was undertaken to create a bank of nisin A hinge derivatives containing the vast majority of possible amino acid substitutions for each position. Although pPTPL was used successfully for random mutagenesis, its relatively large size of approx 10.5 kb was considered unsuitable for the complete plasmid PCR amplification approach utilized for saturation mutagenesis. A smaller (approx 6 kb) E. coli-L. lactis shuttle vector pCI372 was considered to be potentially more useful. Its suitability with respect to the in trans expression of nisA was confirmed by the ability of pDFO5 to restore the nisin positive phenotype. Saturation mutagenesis was performed on each codon using pDF05 and oligonucleotides (Table 5) that replace the specific codon with a NNK triplet, potentially encoding all 20 standard amino acids. Following complete plasmid amplification and introduction into the intermediate Top10 host, sequence analysis of a pooled bank of pDF05 derivatives confirmed randomization. Introduction of these variants into L. lactis NZ9800 allowed the expression of mutant nisin A peptides for further analysis. […] 46 residue conversions were isolated. All strains, regardless of bioactivity, were assessed with a view to comprehensively assessing the consequences of each individual hinge alteration.
# L. monocytogenes CBC1 = experiment: Deferred antagonism assay; assay type: cell-based, Listeria monocytogenes; parameters: key: + = Enhanced bioactivity relative to control; − = Bioactivity equal to or less than control; NA = no activity evident; details: L. mono CBC1; XX and XXX hinge mutant producers
# Description: as §1, §2
# L. monocytogenes CBC3 = experiment: Deferred antagonism assay; assay type: cell-based, Listeria monocytogenes; parameters: key: + = Enhanced bioactivity relative to control; − = Bioactivity equal to or less than control; NA = no activity evident; details: L. mono CBC3; XX and XXX hinge mutant producers
# Description: as §1, §2
# L. plantarum CBC6 = experiment: Deferred antagonism assay; assay type: cell-based, Lactobacillus plantarum; parameters: key: + = Enhanced bioactivity relative to control; − = Bioactivity equal to or less than control; NA = no activity evident; details: XX and XXX hinge mutant producers
# Description: as §1, §2
# L. lactis CBC7 = experiment: Deferred antagonism assay; assay type: cell-based; parameters: key: + = Enhanced bioactivity relative to control; − = Bioactivity equal to or less than control; NA = no activity evident; details: XX and XXX hinge mutant producers
# Description: as §1, §2
# S. aureus CBC4 = experiment: Deferred antagonism assay; assay type: cell-based; parameters: key: + = Enhanced bioactivity relative to control; − = Bioactivity equal to or less than control; NA = no activity evident; details: XX and XXX hinge mutant producers
# Description: as §1, §2
# L. lactis CBC8 = experiment: Deferred antagonism assay; assay type: cell-based; parameters: key: + = Enhanced bioactivity relative to control; − = Bioactivity equal to or less than control; NA = no activity evident; details: XX and XXX hinge mutant producers
# Description: as §1, §2
Substance,Target strain against which the hinge mutant was selected for enhanced bioactivity (indicator strains),Strain(s) against which the derivative (producing strain) displays enhanced bioactivity (indicator strains),bioactivity relative to a nisin A-producing control (L. monocytogenes CBC2),bioactivity relative to a nisin A-producing control (L. monocytogenes CBC1),bioactivity relative to a nisin A-producing control (L. monocytogenes CBC3),bioactivity relative to a nisin A-producing control (L. plantarum CBC6),bioactivity relative to a nisin A-producing control (L. lactis CBC7),bioactivity relative to a nisin A-producing control (S. aureus CBC4),bioactivity relative to a nisin A-producing control (L. lactis CBC8),number of targets with enhanced activity (indicator strains)
"NisinA PLA (ITSISLCTPGCKTGALMGCPLATATCHCSIHVSK; not fully specified (bridges); also: lantibiotic nisin-A: lanthionine rings and dehydrated residues, places not given here; UniProt P13068 24-57, looked up, variant N20P M21L K22A) [nisin A hinge variant PLA (i.e. N20P, M21L, K22A)]",B. cereus UCC1,B. cereus UCC1 and S. aureus CBC4,−,−,−,−,−,+,−,
NisinA PMC,B. cereus UCC1,"L. monocytogenes CBC3, S. aureus CBC4 and L. lactis CBC7; also recorded: L. mono CBC3, S. aureus CBC4, L. lactis CBC7",−,−,+,−,+,+,−,3
NisinA PML,Staph. aureus RF122,"S. aureus RF122, L. monocytogenes CBC2 , CBC3, and CBC4 and L. lactis CBC7 and S. aureus RF122, L. mono CBC2, CBC3, CBC4, L. lactis and CBC7",+,−,+,−,+,+,−,4
NisinA PMM,Staph. aureus RF122,B. cereus UCC1; also recorded: B. cereus UCC,−,−,−,−,−,−,−,
NisinA PMQ,Strep. agalactiae ATCC 13813/B. cereus UCC1,"S. agalactiae ATCC13813, B. cereus UCC1, L. monocytogenes CBC3, S. aureus CBC4 , and L. lactis CBC7 , CBC8; also recorded: S. agalactiae ATCC13813, B. cereus UCC1, L. mono CBC3,",−,−,+,−,+,+,+,4
NisinA PMT,Staph. aureus RF122,S. aureus RF122,−,−,−,−,−,−,−,
"NisinA PNR (ITSISLCTPGCKTGALMGCPNRTATCHCSIHVSK; not fully specified (bridges); also: lantibiotic nisin-A: lanthionine rings and dehydrated residues, places not given here; UniProt P13068 24-57, looked up, variant N20P M21N K22R) [nisin A hinge variant PNR (i.e. N20P, M21N, K22R)]",Staph. aureus RF122,S. aureus RF122,−,−,−,−,−,−,−,
NisinA PSL,C. sporogenes UCC1/Staph. aureus RF122,C. sporogenes UCC1 and S. aureus RF122,−,−,−,−,−,−,−,
NisinA PTA,C. sporogenes UCC1,C. sporogenes UCC1,−,−,−,−,−,−,−,
"NisinA PTL (ITSISLCTPGCKTGALMGCPTLTATCHCSIHVSK; thioether (positions not given here); not fully specified (residues 2, 5, 33, bridges); also: lantibiotic nisin A, thioether rings and dehydro residues not given here; UniProt P13068 24-57, looked up, variant N20P M21T K22L) [nisin A hinge variant PTL (i.e. N20P, M21T, K22L)]",C. sporogenes UCC1,"C. sporogenes UCC1, L. monocytogenes CBC3 and CBC 4 , and L. lactis CBC7; also recorded: C. sporogenes UCC1, L mono CBC3, 4, L. lactis CBC7",−,−,+,−,+,+,−,3
